Assay results from ChEMBL document CHEMBL5291721, “A preclinical secondary pharmacology resource illuminates target-adverse drug reaction associations of marketed drugs” (Nat Commun, 2023).

How the values were obtained:
Adenosine receptor A1 = target: T1, Adenosine receptor A1 (Homo sapiens, UniProt P30542)
T1 sequence (P30542 whole entry): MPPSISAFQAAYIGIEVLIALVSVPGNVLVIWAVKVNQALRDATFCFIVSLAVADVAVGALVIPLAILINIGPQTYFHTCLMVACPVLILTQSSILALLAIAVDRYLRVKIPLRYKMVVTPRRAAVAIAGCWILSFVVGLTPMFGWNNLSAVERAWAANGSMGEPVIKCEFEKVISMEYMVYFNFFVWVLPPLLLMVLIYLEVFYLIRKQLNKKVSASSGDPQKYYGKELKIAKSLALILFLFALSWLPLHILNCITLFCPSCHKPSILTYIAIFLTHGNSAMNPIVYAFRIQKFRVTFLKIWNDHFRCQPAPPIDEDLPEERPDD

[1] = target: Beta-2 adrenergic receptor (Homo sapiens, UniProt P07550)
[2] = target: T2, Alpha-2B adrenergic receptor (Homo sapiens, UniProt P18089)
T2 sequence (P18089 whole entry): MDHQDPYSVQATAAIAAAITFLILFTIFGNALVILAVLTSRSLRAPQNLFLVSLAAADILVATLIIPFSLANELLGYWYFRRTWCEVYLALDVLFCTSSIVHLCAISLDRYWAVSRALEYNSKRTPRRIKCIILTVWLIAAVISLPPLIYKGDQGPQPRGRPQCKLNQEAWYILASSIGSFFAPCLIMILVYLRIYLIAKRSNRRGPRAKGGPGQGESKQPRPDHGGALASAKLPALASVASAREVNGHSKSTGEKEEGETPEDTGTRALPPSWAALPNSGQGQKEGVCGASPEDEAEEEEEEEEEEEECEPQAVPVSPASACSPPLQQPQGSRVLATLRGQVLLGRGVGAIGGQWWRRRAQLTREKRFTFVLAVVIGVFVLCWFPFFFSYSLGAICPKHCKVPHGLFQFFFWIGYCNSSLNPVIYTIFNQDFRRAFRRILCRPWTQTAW

Estrogen receptor = target: T3, Estrogen receptor (Homo sapiens, UniProt P03372)
T3 sequence (P03372 whole entry): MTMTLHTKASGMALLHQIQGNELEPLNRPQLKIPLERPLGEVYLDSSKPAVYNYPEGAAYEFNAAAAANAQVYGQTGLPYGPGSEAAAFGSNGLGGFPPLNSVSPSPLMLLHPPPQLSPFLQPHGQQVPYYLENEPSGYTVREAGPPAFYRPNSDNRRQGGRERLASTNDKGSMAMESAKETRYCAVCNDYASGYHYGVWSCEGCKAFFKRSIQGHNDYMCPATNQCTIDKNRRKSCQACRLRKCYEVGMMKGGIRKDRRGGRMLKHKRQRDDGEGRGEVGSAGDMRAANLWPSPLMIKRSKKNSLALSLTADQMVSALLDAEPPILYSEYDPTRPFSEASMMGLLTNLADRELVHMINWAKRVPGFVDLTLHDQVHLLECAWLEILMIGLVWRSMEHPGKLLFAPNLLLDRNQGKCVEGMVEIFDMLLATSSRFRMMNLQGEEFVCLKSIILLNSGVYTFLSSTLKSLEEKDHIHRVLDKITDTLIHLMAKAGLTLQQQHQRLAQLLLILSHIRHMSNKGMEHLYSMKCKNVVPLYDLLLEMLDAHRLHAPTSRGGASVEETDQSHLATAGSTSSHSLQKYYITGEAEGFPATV

[3] = target: T4, Alpha-1A adrenergic receptor (Homo sapiens, UniProt P35348); format: functional, cell-based
T4 sequence (P35348 whole entry): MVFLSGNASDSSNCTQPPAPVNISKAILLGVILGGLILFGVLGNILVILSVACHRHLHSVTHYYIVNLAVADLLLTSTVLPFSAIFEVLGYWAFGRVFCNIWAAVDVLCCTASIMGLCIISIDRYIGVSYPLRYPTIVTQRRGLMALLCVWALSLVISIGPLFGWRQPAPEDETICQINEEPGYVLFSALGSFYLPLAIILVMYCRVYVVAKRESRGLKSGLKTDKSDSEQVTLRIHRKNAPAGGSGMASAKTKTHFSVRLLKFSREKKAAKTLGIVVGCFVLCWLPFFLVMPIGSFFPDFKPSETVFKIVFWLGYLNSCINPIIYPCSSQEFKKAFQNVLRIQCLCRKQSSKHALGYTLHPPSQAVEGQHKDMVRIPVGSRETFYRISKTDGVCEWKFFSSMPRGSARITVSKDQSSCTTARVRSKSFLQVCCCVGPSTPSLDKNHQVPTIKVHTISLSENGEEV

[4] = target: T4, Alpha-1A adrenergic receptor; format: functional, cell-based; remark: listed apart in the source
[5] = target: T5, Muscarinic acetylcholine receptor M2 (Homo sapiens, UniProt P08172); format: functional, cell-based
T5 sequence (P08172 whole entry): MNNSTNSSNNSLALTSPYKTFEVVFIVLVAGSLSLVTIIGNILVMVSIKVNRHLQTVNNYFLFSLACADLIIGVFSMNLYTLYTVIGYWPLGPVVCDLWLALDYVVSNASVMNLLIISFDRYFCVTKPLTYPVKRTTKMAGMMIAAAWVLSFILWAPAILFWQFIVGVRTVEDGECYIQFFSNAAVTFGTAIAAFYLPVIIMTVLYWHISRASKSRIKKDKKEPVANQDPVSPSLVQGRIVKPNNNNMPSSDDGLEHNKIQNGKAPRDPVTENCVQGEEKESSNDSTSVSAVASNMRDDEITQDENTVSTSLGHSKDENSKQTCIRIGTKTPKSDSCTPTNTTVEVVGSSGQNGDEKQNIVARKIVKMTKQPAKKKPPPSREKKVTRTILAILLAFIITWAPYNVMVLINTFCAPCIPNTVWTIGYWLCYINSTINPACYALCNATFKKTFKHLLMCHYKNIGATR

[6] = target: T5, Muscarinic acetylcholine receptor M2; format: functional, cell-based; remark: listed apart in the source
[7] = target: 5-hydroxytryptamine receptor 2A (Homo sapiens, UniProt P28223); format: functional, cell-based
Note: assay procedure not described here.

Chain of 5-hydroxytryptamine receptor 2A (P28223 whole entry): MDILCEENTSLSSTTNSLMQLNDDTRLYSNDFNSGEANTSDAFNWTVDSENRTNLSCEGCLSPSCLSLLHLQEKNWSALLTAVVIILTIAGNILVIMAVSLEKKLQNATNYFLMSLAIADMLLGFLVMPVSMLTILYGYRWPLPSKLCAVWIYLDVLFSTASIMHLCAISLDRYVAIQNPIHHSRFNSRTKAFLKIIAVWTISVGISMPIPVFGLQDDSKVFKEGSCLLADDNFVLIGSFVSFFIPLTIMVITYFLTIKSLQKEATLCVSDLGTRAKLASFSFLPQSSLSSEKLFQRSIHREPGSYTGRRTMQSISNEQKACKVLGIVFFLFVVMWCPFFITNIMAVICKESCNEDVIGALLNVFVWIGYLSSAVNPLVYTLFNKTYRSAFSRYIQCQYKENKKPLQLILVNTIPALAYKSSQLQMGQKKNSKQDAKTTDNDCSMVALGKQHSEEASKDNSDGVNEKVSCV
Chain of Beta-2 adrenergic receptor (P07550 whole entry): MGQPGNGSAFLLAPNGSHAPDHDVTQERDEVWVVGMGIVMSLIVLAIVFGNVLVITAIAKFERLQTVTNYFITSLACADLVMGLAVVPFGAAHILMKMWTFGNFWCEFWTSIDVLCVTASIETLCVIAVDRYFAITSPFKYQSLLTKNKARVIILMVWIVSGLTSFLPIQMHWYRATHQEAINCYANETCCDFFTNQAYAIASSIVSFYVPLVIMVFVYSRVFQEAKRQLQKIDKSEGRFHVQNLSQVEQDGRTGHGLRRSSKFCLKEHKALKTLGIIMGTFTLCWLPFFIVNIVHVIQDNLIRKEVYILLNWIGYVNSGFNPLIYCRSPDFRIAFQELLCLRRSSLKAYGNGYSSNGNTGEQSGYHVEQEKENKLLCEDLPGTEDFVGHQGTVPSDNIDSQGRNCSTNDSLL

SMILES | AC50 (Adenosine receptor A1) [µM] | AC50 [1] [µM] | AC50 [2] [µM] | AC50 (Estrogen receptor) [µM] | AC50 [3] [µM] | AC50 [4] [µM] | AC50 [5] [µM] | AC50 [6] [µM] | AC50 [7] [µM]
CCCCCCCC(=O)N[C@H](CN1CCCC1)[C@H](O)c1ccc2c(c1)OCCO2 | > 30 |  |  |  |  |  |  |  | 
C[C@]1(COc2ccc(N3CCC(Oc4ccc(OC(F)(F)F)cc4)CC3)cc2)Cn2cc([N+](=O)[O-])nc2O1 | > 30 | > 10 | > 10 | > 30 |  |  |  |  | 
CC(=O)OCC[N+](C)(C)C [ACETYLCHOLINE] | > 30 | > 30 | > 10 |  | > 30 | > 30 |  |  | 
O=C(Nc1nc(-c2cc(Cl)cs2)c(N2CCN(C3CCCCC3)CC2)s1)c1cnc(N2CCC(C(=O)O)CC2)c(Cl)c1 [AVATROMBOPAG] | > 30 | > 10 | > 10 |  |  |  |  |  | 
C[C@@H](O)[C@H]1C(=O)N2C(C(=O)[O-])=C(SC3Cn4cnc[n+]4C3)[C@H](C)[C@H]12 (some centres undefined) [BIAPENEM] | > 30 |  |  |  |  |  |  |  | 
Cc1nnc(SCC2=C(C(=O)O)N3C(=O)[C@@H](NC(=O)Cn4cc(Cl)c(=O)c(Cl)c4)[C@H]3SC2)s1 [CEFAZEDONE] | > 30 |  |  |  |  |  |  |  | 
CO[C@@]1(NC(=O)CSCC#N)C(=O)N2C(C(=O)O)=C(CSc3nnnn3C)CS[C@@H]21 [CEFMETAZOLE] | > 30 |  |  |  | > 30 | > 30 | > 30 | > 30 | 
CO/N=C(\C(=O)N[C@@H]1C(=O)N2C(C(=O)[O-])=C(C[n+]3cccc4c3CCC4)CS[C@H]12)c1csc(N)n1 [CEFPIROME] | > 30 |  | > 30 |  | > 30 | > 30 | > 30 | > 30 | > 30
CC[C@H]1OC(=O)[C@H](C)[C@@H](O[C@H]2C[C@@](C)(OC)[C@@H](O)[C@H](C)O2)[C@H](C)[C@@H](O[C@@H]2O[C@H](C)C[C@H](N(C)C)[C@H]2O)[C@](C)(OC)C[C@@H](C)C(=O)[C@H](C)[C@@H](O)[C@]1(C)O [CLARITHROMYCIN] | > 30 |  |  |  | > 30 | > 30 | > 30 | > 30 | 
Oc1c(I)cc(Cl)c2cccnc12 [CLIOQUINOL] | > 30 |  | > 30 |  | > 30 | > 30 |  |  | > 30
C[C@@H]1CCC[C@H](C)N1NC(=O)c1ccc(Cl)c(S(N)(=O)=O)c1 [CLOPAMIDE] |  | > 30 | > 30 | > 30 | > 30 | > 30 | > 30 | > 30 | > 30
O=C(CCCN1CC=C(n2c(=O)[nH]c3ccccc32)CC1)c1ccc(F)cc1 [DROPERIDOL] | > 30 |  |  |  |  |  |  |  | 
COc1cccc(N(C)C(=S)Oc2ccc3c(c2)CCCC3)n1 [LIRANAFTATE] |  | > 30 | > 30 | > 30 | > 30 | > 30 | > 30 | > 30 | 7.4
Nc1nc(N)nc(Nc2ccc([As]3SCC(CO)S3)cc2)n1 (centres undefined) [MELARSOPROL] | > 30 |  |  |  |  |  |  |  | 
CCC(=O)O[C@@H]1CC(=O)O[C@H](C)C/C=C/C=C/[C@H](OC(C)=O)[C@H](C)C[C@H](CC=O)[C@H](O[C@@H]2O[C@H](C)[C@@H](O[C@H]3C[C@@](C)(OC(C)=O)[C@@H](OC(=O)CC)[C@H](C)O3)[C@H](N(C)C)[C@H]2O)[C@H]1OC [MIOCAMYCIN] | > 30 |  |  |  |  |  |  |  | 
C1CNCCN1 [PIPERAZINE] | > 30 |  |  |  |  |  |  |  | 
COCCCOc1ccnc(C[S+]([O-])c2nc3ccccc3[nH]2)c1C (centres undefined) [RABEPRAZOLE] | > 30 | > 10 |  |  |  |  | > 10 | > 10 | 
CC(C)=CCOc1ccc(/C=C/C(=O)c2ccc(OCC=C(C)C)cc2OCC(=O)O)cc1 [SOFALCONE] |  | 22 | > 30 | > 30 | > 30 | 25 | > 30 | > 30 | > 30
